The record followed here is patent publication US9815841B2, “Compounds” (GLAXOSMITHKLINE INTELLECTUAL PROPERTY DEVELOPMENT LIMITED, priority 2014, dated 2017).

The assay addresses T1, recombinant full length LRRK2 over-expressed in SH-SY5Y cells (Homo sapiens, UniProt Q5S007).
T1 construct: A BacMam virus expressing full length recombinant LRRK2 was purchased from Invitrogen; host or cells: SH-SY5Y human neuroblastoma cells transduced with BacMam LRRK2 virus
Briefly: Recombinant cellular LRRK2 AlphaScreen assay (LRRK2 Ser935 phosphorylation). The class given is cell-based. Conditions: SH-SY5Y cells with BacMam LRRK2, 60 minutes compound incubation, read-out: recombinant cellcular LRRK2 alphaScreen assay (pIC50) (converted). The protocol:
Recombinant Cellular LRRK2 AlphaScreen Assay
A BacMam virus expressing full length recombinant LRRK2 was purchased from Invitrogen and amplified by inoculation of SF-9 cells at MOI 0.3 for 4-5 days in Sf-900 III SFM medium supplemented with 3% fetal bovine serum. Infected cell cultures were then centrifuged at 2000 g for 20 minutes, viral supernatant titer determined by anti-gp64 plaque assay and stored at 4° C.
Affinity-purified anti-phospho LRRK2 Ser935 sheep polyclonal antibody (Dzamko et al., 2010, Biochem. J. 430: 405-413) was biotinylated by standard methods (PerkinElmer). Anti-LRRK2 rabbit polyclonal antibody was purchased from Novus Biologicals. AlphaScreen Protein A IgG Kit (including acceptor and donor beads) was purchased from Perkin Elmer.
SH-SY5Y cells were grown in DMEM/F12 medium with 10% dialysed fetal bovine serum and harvested by treatment with 0.5% trypsin-EDTA for 5 minutes at […] followed by centrifugation at 1000 rpm for 4 minutes. The cell pellet was resuspended in Opti-MEM reduced serum media (Invitrogen) at 200,000 cells/ml and mixed with the BacMam LRRK2 virus at MOI=50. 50 μl cell solutions were then dispensed to each well of a 384-well plate and incubated at 37° C., 5% CO2 for 24 hours.
Serial dilutions of test compounds were prepared in Opti-MEM reduced serum media (Invitrogen) and 5.6 ul transferred from compound plate to cell assay plate to achieve a top final assay concentration of 10 uM. DMSO was used in certain wells as controls. Cells were incubated at 37° C., 5% CO2 for 60 minutes. The medium was then removed and cells lysed by addition of 20 ul cell lysis buffer (Cell Signaling Technology) and incubation at 4° C. for 20 minutes. 10 ul of antibody/acceptor bead mix [(1/1000 biotinylated-pS935 LRRK2 antibody, 1/1000 total-LRRK2 antibody, 1/100 Acceptor beads in AlphaScreen detection buffer (25 mM Hepes (pH 7.4), 0.5% Triton X-100, 1 mg/ml Dextran 500 and 0.1% BSA)] was then added to each well and plates incubated for 2 hours at ambient temperature in the dark. 10 μl of donor beads solution (1/33.3 donor beads in AlphaScreen detection buffer) was then added to each well. Following incubation for a further 2 hours at ambient temperature in the dark, plates were read on an EnVision™ plate reader at emission 520-620 nm with excitation 680 nm. Dose response curve data was based on sigmoidal dose-response model.
(In Alpha technology, singlet oxygen from a donor bead excites a nearby acceptor bead.)

T1 sequence (Q5S007 whole entry): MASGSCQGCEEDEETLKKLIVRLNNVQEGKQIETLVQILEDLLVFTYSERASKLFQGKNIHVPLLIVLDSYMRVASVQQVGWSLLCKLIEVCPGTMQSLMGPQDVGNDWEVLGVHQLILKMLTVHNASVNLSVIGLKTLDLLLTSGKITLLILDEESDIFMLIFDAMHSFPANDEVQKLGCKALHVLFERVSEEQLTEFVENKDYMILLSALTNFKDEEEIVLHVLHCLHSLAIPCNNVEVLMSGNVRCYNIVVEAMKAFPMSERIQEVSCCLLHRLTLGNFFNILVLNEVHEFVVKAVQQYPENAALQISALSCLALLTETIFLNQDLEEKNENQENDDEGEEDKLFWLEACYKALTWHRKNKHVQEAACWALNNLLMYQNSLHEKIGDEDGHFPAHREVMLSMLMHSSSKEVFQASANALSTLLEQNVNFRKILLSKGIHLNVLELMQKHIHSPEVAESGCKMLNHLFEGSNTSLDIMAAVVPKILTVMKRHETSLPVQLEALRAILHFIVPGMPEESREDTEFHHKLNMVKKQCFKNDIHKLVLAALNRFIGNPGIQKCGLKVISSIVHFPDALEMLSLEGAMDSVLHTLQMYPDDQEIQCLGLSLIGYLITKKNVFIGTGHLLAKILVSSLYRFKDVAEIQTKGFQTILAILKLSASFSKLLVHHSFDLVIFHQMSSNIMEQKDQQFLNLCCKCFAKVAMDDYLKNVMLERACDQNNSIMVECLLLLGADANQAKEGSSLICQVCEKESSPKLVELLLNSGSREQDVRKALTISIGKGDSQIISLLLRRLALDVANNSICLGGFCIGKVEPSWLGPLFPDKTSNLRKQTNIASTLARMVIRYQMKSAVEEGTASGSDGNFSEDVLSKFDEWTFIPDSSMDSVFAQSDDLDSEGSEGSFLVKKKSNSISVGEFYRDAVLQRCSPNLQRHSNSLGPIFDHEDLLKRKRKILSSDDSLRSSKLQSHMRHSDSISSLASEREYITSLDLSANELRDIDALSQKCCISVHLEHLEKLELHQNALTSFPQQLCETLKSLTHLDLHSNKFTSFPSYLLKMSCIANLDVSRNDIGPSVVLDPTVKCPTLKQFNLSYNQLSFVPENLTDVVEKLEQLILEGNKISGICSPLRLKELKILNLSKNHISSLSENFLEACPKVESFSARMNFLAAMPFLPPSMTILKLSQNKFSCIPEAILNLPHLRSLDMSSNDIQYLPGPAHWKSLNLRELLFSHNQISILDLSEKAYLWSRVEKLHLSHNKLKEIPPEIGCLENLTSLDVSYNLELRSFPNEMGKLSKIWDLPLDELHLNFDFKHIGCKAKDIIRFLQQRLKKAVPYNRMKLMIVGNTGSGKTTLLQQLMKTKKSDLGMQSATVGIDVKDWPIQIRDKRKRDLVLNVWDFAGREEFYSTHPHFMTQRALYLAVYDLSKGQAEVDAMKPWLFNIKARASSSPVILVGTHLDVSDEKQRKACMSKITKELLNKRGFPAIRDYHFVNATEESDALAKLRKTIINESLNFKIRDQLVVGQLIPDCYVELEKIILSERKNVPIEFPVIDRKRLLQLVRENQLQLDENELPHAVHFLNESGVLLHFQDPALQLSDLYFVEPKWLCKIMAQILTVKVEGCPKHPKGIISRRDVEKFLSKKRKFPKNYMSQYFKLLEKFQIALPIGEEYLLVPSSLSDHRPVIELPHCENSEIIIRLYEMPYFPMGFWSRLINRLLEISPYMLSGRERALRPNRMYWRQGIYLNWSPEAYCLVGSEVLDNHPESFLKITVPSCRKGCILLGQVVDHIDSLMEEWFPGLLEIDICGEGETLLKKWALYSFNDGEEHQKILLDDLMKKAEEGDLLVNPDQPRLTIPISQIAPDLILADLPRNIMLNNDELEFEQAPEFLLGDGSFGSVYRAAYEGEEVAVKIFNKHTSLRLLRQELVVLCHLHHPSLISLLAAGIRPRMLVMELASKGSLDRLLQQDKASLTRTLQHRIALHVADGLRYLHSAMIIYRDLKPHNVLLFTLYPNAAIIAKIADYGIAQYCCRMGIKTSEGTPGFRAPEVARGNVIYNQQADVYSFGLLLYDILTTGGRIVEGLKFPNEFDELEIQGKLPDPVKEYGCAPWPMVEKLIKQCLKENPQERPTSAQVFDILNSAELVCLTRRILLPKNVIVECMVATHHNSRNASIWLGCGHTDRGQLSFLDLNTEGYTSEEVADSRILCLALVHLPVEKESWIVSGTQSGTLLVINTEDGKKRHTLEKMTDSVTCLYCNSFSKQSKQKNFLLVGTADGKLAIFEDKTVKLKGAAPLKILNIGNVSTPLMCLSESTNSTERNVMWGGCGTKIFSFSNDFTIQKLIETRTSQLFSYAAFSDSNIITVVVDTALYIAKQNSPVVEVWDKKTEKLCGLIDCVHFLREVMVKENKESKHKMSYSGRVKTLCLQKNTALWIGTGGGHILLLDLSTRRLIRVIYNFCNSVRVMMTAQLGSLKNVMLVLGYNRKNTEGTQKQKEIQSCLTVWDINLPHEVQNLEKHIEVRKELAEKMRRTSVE

Regarding `CCOc1nc(Nc2ccc(C(=O)N3CCC(N4CCN(C)CC4)CC3)cc2OC)nc2[nH]ccc12` [Example E4, (4-((4-ethoxy-7H-pyrrolo-[2,3-d]pyrimidin-2-yl)amino)-3-methoxyphenyl)(4-(4-methylpiperazin-1-yl)-piperidin-1-yl)-methanone], the IC50 was not above 100 nM.

As for `CCOc1nc(Nc2ccc(C(=O)N3CCN(C)CC3)cc2OC)nc2[nH]ccc12` [Example E3, (4-((4-ethoxy-7H-pyrrolo-[2,3-d]-pyrimidin-2-yl)amino)-3-methoxyphenyl)(4-methylpiperazin-1-yl)-methanone], the IC50 is 158 nM.

For `CCOc1nc(Nc2ccc(C(=O)N3CCOC[C@@H]3C)cc2OC)nc2[nH]ccc12` [Example E27, (S)-(4-((4-ethoxy-7H-pyrrolo-[2,3-d]pyrimidin-2-yl)amino)-3-methoxyphenyl)(3-methylmorpholino)methanone], the IC50 is not above 100 nM.

`CCOc1cc(C(=O)N2CCOCC2)ccc1Nc1nc(OCC)c2cc[nH]c2n1` [Example E20, (3-ethoxy-4-((4-ethoxy-7H-pyrrolo-[2,3-d]pyrimidin-2-yl)amino)phenyl)(morpholino)methanone]: the IC50 was 200 nM.

Take `CCOc1nc(Nc2ccc(C(=O)N3CCN(C)CC3)cc2OC)nc2[nH]cc(C)c12` [Example E31, (4-((4-ethoxy-5-methyl-7H-pyrrolo-[2,3-d]pyrimidin-2-yl)amino)-3-methoxyphenyl)(4-methylpiperazin-1-yl)methanone]: the IC50 was not above 100 nM.

`CCOc1nc(Nc2ccc(C(=O)N3CCN(C)C[C@H]3C)cc2OC)nc2[nH]ccc12` [Example E40, (R)-(2,4-dimethylpiperazin-1-yl)(4-((4-ethoxy-7H-pyrrolo-[2,3-d]-pyrimidin-2-yl)-amino)-3-methoxyphenyl)methanone]: the IC50 was 50.1 nM.

For the compound `CCOc1nc(Nc2ccc(C(=O)N3CCN(C)CC3)cc2OC(C)C)nc2[nH]ccc12` [Example E24, (4-((4-ethoxy-7H-pyrrolo-[2,3-d]pyrimidin-2-yl)amino)-3-isopropoxyphenyl)(4-methylpiperazin-1-yl)methanone], the IC50 was 398 nM.

In the case of `CCOc1nc(Nc2ccc(C(=O)N3CCC4(CC3)CC4)cc2OC)nc2[nH]ccc12` [Example E16, (4-((4-ethoxy-7H-pyrrolo-[2,3-d]-pyrimidin-2-yl)amino)-3-methoxyphenyl)(6-azaspiro-[2.5]octan-6-yl)methanone], the IC50 was 398 nM.

Take `CCOc1nc(Nc2ccc(C(=O)N3CCC4(CC3)CN(C)C4)cc2OC)nc2[nH]ccc12` [Example E13, (4-((4-ethoxy-7H-pyrrolo-[2,3-d]-pyrimidin-2-yl)amino)-3-methoxyphenyl)(2-methyl-2,7-diazaspiro-[3.5]-nonan-7-yl)methanone]: the IC50 was not above 100 nM.

Turning to `CCOc1nc(Nc2ccc(C(=O)N3CCOCC3)cc2OC)nc2[nH]ccc12` [Example E1, (4-((4-ethoxy-7H-pyrrolo-[2,3-d]-pyrimidin-2-yl)amino)-3-methoxyphenyl)(morpholino)methanone], the IC50 is 158 nM.

Turning to `CCOc1nc(Nc2ccc(C(=O)N3CCOCC3)cc2)nc2[nH]ccc12` [Example E9, (4-((4-ethoxy-7H-pyrrolo-[2,3-d]pyrimidin-2-yl)amino)phenyl)(morpholino)methanone], the IC50 is not above 100 nM.

Take `CCOc1nc(Nc2cc(F)c(C(=O)N3CCOCC3)cc2OC)nc2[nH]ccc12` [Example E2, (4-((4-ethoxy-7H-pyrrolo-[2,3-d]-pyrimidin-2-yl)amino)-2-fluoro-5-methoxyphenyl)(morpholino)methanone]: the IC50 is 200 nM.
